Source: PubChem BioAssay AID1918991 (Molecular Pharmacology Branch, DTP, NCI, 2023)

Tested on: 186277-243-T-J2-PDC complex spheroid growth
Assay: Anticancer human tumor 186277-243-T-J2-PDC patient-derived colon adenocarcinoma cell line growth inhibition [AhR]
Settings: for IC50: curve of first compound; for viability, T/C: stronger effect = lower value
Procedure, shortened: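 Agents were dosed in half-log steps down from roughly clinical Cmax, or from 10 microM where Cmax was unknown, alone and with AhR antagonists. Read-out: percent test/control growth of tumor spheroids containing HUVEC and MSC stromal cells.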

[1] = second compound 0.1 µM, first compound 0.000316 µM
[2] = second compound 0.1 µM, first compound 0.001 µM
[3] = second compound 0.1 µM, first compound 0.00316 µM
[4] = second compound 0.1 µM, first compound 0.01 µM
[5] = second compound 0.1 µM, first compound 0.0316 µM
[6] = second compound 0.1 µM, first compound 0.1 µM
[7] = second compound 0.316 µM, first compound 0.000316 µM
[8] = second compound 0.316 µM, first compound 0.001 µM
[9] = second compound 0.316 µM, first compound 0.00316 µM
[10] = second compound 0.316 µM, first compound 0.01 µM
[11] = second compound 0.316 µM, first compound 0.0316 µM
[12] = second compound 0.316 µM, first compound 0.1 µM
[13] = second compound 1 µM, first compound 0.000316 µM
[14] = second compound 1 µM, first compound 0.001 µM
[15] = second compound 1 µM, first compound 0.00316 µM
[16] = second compound 1 µM, first compound 0.01 µM
[17] = second compound 1 µM, first compound 0.0316 µM
[18] = second compound 1 µM, first compound 0.1 µM
[19] = second compound 3.16 µM, first compound 0.000316 µM
[20] = second compound 3.16 µM, first compound 0.001 µM
[21] = second compound 3.16 µM, first compound 0.00316 µM
[22] = second compound 3.16 µM, first compound 0.01 µM
[23] = second compound 3.16 µM, first compound 0.0316 µM
[24] = second compound 3.16 µM, first compound 0.1 µM
[25] = second compound 10 µM, first compound 0.000316 µM
[26] = second compound 10 µM, first compound 0.001 µM
[27] = second compound 10 µM, first compound 0.00316 µM
[28] = second compound 10 µM, first compound 0.01 µM
[29] = second compound 10 µM, first compound 0.0316 µM
[30] = second compound 10 µM, first compound 0.1 µM
[31] = second compound 0.1 µM, first compound 0.316 µM
[32] = second compound 0.1 µM, first compound 1 µM
[33] = second compound 0.316 µM, first compound 0.316 µM
[34] = second compound 0.316 µM, first compound 1 µM
[35] = second compound 1 µM, first compound 0.316 µM
[36] = second compound 1 µM, first compound 1 µM
[37] = second compound 3.16 µM, first compound 0.316 µM
[38] = second compound 3.16 µM, first compound 1 µM
[39] = second compound 10 µM, first compound 0.316 µM
[40] = second compound 10 µM, first compound 1 µM
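Also: spheroids exposed to compounds for seven days before the viability read.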
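For viability, T/C in this document: luminescent signal used as a stand-in for viable cell amount; 100% = DMSO vehicle control wells.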

CC[C@@]1(O)C(=O)OCc2c1cc1n(c2=O)Cc2cc3c(CN(C)C)c(O)ccc3nc2-1 + Cc1cncc(-c2nc(NCCc3c[nH]c4ccccc34)c3ncn(C(C)C)c3n2)c1 gave an IC50 (second compound 0.1 µM) greater than 100 nM, an IC50 (second compound 0.316 µM) greater than 100 nM and an IC50 (second compound 1 µM) greater than 100 nM. The IC50 (second compound 3.16 µM) was greater than 100 nM, the IC50 (second compound 10 µM) was 1.33 nM and the viability, T/C [1] was 98.8%. It also gave a viability, T/C [2] of 96.3%, a viability, T/C [3] of 118% and a viability, T/C [4] of 112%. For the same molecule, the viability, T/C [5] was 92.6%, the viability, T/C [6] was 62% and the viability, T/C [7] was 107%. The viability, T/C [8] was 101%, the viability, T/C [9] was 104% and the viability, T/C [10] was 135%. It also gave a viability, T/C [11] of 86.2%, a viability, T/C [12] of 64.8% and a viability, T/C [13] of 99.6%. For the same molecule, the viability, T/C [14] was 108%, the viability, T/C [15] was 125% and the viability, T/C [16] was 140%. The viability, T/C [17] was 85.2%, the viability, T/C [18] was 69.4% and the viability, T/C [19] was 118%. It also gave a viability, T/C [20] of 109%, a viability, T/C [21] of 145% and a viability, T/C [22] of 135%. The viability, T/C [23] was 87.4%, the viability, T/C [24] was 68.9% and the viability, T/C [25] was 49.5%. For the same molecule, the viability, T/C [26] was 57.9%, the viability, T/C [27] was 38.7% and the viability, T/C [28] was 28.6%. For the same molecule, the viability, T/C [29] was 31% and the viability, T/C [30] was 39%.
CC1COCCN1c1cc(-c2ccnn2C)c2ccnc(-c3ccn[nH]3)c2n1 (stereo not given) + CC(CO)NC(=O)c1cc(-c2ccc(Cl)cc2)nn(-c2cnn(C)c2)c1=O showed an IC50 (second compound 0.1 µM) of 24.3 nM, an IC50 (second compound 0.316 µM) of 23.6 nM and an IC50 (second compound 1 µM) of 20.4 nM. The IC50 (second compound 3.16 µM) was 19.2 nM, the IC50 (second compound 10 µM) was 11.4 nM and the viability, T/C [3] was 100%. It also gave a viability, T/C [4] of 89.9%, a viability, T/C [5] of 38.1% and a viability, T/C [6] of 7.53%. It also gave a viability, T/C [31] of 3.44%, a viability, T/C [32] of 2.42% and a viability, T/C [9] of 91%. For the same molecule, the viability, T/C [10] was 86.3%, the viability, T/C [11] was 37.5% and the viability, T/C [12] was 6.69%. The viability, T/C [33] was 2.84%, the viability, T/C [34] was 2.25% and the viability, T/C [15] was 103%. For the same molecule, the viability, T/C [16] was 77%, the viability, T/C [17] was 34.2% and the viability, T/C [18] was 6.17%. It also gave a viability, T/C [35] of 3.4%, a viability, T/C [36] of 2.51% and a viability, T/C [21] of 82.3%. The viability, T/C [22] was 84.8%, the viability, T/C [23] was 24.2% and the viability, T/C [24] was 6.02%. The viability, T/C [37] was 3.47%, the viability, T/C [38] was 2.6% and the viability, T/C [27] was 79.3%. For the same molecule, the viability, T/C [28] was 54.1%, the viability, T/C [29] was 18.2% and the viability, T/C [30] was 6.38%. For the same molecule, the viability, T/C [39] was 3.92% and the viability, T/C [40] was 2.78%.
For COc1cccc2c1C(=O)c1c(O)c3c(c(O)c1C2=O)CC(O)(C(=O)CO)CC3OC1CC(N)C(O)C(C)O1 (stereo not given) + CC(CO)NC(=O)c1cc(-c2ccc(Cl)cc2)nn(-c2cnn(C)c2)c1=O, the IC50 (second compound 0.1 µM) was less than 31.6 nM, the IC50 (second compound 0.316 µM) was less than 31.6 nM and the IC50 (second compound 1 µM) was less than 31.6 nM. It also gave an IC50 (second compound 3.16 µM) of less than 31.6 nM, an IC50 (second compound 10 µM) of less than 31.6 nM and a viability, T/C [5] of 39.3%. For the same molecule, the viability, T/C [6] was 28.8%, the viability, T/C [31] was 7.36% and the viability, T/C [32] was 0.1%. It also gave a viability, T/C (second compound 0.1 µM, first compound 3.16 µM) of 0.08%, a viability, T/C (second compound 0.1 µM, first compound 10 µM) of 0.32% and a viability, T/C [11] of 38.3%. For the same molecule, the viability, T/C [12] was 27.1%, the viability, T/C [33] was 7.61% and the viability, T/C [34] was 0.08%. For the same molecule, the viability, T/C (second compound 0.316 µM, first compound 3.16 µM) was 0.06%, the viability, T/C (second compound 0.316 µM, first compound 10 µM) was 0.6% and the viability, T/C [17] was 37.9%. It also gave a viability, T/C [18] of 29%, a viability, T/C [35] of 8.06% and a viability, T/C [36] of 0.09%. The viability, T/C (second compound 1 µM, first compound 3.16 µM) was 0.37%, the viability, T/C (second compound 1 µM, first compound 10 µM) was 0.22% and the viability, T/C [23] was 33.9%. It also gave a viability, T/C [24] of 27.5%, a viability, T/C [37] of 7.26% and a viability, T/C [38] of 0.08%. The viability, T/C (second compound 3.16 µM, first compound 3.16 µM) was 0.09%, the viability, T/C (second compound 3.16 µM, first compound 10 µM) was 0.64% and the viability, T/C [29] was 28.2%. The viability, T/C [30] was 24.3%, the viability, T/C [39] was 4.49% and the viability, T/C [40] was 0.2%. It also gave a viability, T/C (second compound 10 µM, first compound 3.16 µM) of 0.17% and a viability, T/C (second compound 10 µM, first compound 10 µM) of 0.32%.
CC[C@@]1(O)C(=O)OCc2c1cc1n(c2=O)Cc2cc3c(CN(C)C)c(O)ccc3nc2-1 + CC(CO)NC(=O)c1cc(-c2ccc(Cl)cc2)nn(-c2cnn(C)c2)c1=O showed an IC50 (second compound 0.1 µM) of 14.1 nM, an IC50 (second compound 0.316 µM) of 14.5 nM and an IC50 (second compound 1 µM) of 15 nM. The IC50 (second compound 3.16 µM) was 11.3 nM, the IC50 (second compound 10 µM) was 12.7 nM and the viability, T/C [1] was 101%. It also gave a viability, T/C [2] of 101%, a viability, T/C [3] of 89.5% and a viability, T/C [4] of 57.3%. It also gave a viability, T/C [5] of 32.2%, a viability, T/C [6] of 21.5% and a viability, T/C [7] of 96.5%. For the same molecule, the viability, T/C [8] was 102%, the viability, T/C [9] was 93.5% and the viability, T/C [10] was 59.6%. It also gave a viability, T/C [11] of 30.1%, a viability, T/C [12] of 22.2% and a viability, T/C [13] of 90.4%. For the same molecule, the viability, T/C [14] was 102%, the viability, T/C [15] was 91% and the viability, T/C [16] was 62.2%. It also gave a viability, T/C [17] of 27.6%, a viability, T/C [18] of 22% and a viability, T/C [19] of 88.3%. The viability, T/C [20] was 102%, the viability, T/C [21] was 77.1% and the viability, T/C [22] was 55.5%. The viability, T/C [23] was 24.7%, the viability, T/C [24] was 22.7% and the viability, T/C [25] was 75%. The viability, T/C [26] was 75.4%, the viability, T/C [27] was 78.3% and the viability, T/C [28] was 56.2%. It also gave a viability, T/C [29] of 26.5% and a viability, T/C [30] of 24.1%.
